Literature values, collected in patent US20190070157A1, “HYPERBARIC SOLUTION INJECTION OF LEVOBUPIVACAINE HYDROCHLORIDE COMPRISING LEVOBUPIVACAINE HYDROCHLORIDE” (NEON LABORATORIES LIMITED, priority 2015, published 2019).

Settings: animal studies, compared with bupivacaine

## CCCCN1CCCC[C@H]1C(=O)Nc1c(C)cccc1C [Levobupivacaine]
  risk of cardiovascular and CNS toxicity: lower risk of cardiovascular and CNS toxicity than bupivacaine
